Data taken from US8975295B2, “Modulation of zinc levels to improve tissue properties” (Precision Dermatology, Inc., priority 2002, dated 2015).
Read-outs that look alike come from different tables or passages of the source.

Columns and labels:
elastase = assay: Elastase activity with divalent cations in PBS, read at 405 nm; format: biochemical; conditions: for Elastase activity: 0.005M to 0.01M cation concentration in PBS; for sensitivity of elastase to the cation (comparison of the ions): read every minute for 15 minutes
Description: An assay was run that involved varying concentrations of each divalent cation, ranging from concentrations of 0.005M to 1.0M, in phosphate buffered saline (PBS). The positive control contained no cations, while the negative control contained no elastase. Solutions were read at 405 nm every minute for 15 minutes under controlled conditions. The optical density value of the negative control, which represented background interference, was subtracted from each result. These corrected optical density values from the two trials were averaged.

deep white fat = conditions: 10 μM Zn++, 21 days, lateral abdomen; base only 29375.425; P = 0.0001
Description: (§1) All procedures and analyses were performed by blinded observers. […] Images were analyzed using Image Pro Plus software (Media Cybernetics, Silver Spring, Md.) to determine total cross-sectional area of epidermis over standardized lengths. Mean and standard error were assessed using Statview (Abacus Concepts, Berkeley, Calif.), with comparisons made using ANOVA repeated measures and significance determined at 95% with post-hoc testing using Fisher PLSD or Scheffe F-test.

murine skin = conditions: for local irritation of skin: 21 days topical
Description: (§2) To prepare these solutions, a 1.0 M stock of zinc acetate [ZnAc*(H2O)2] (Mallinkrodt Lot 8740 KPRK) was prepared in sterile phosphate buffered saline (PBS, pH 7.2, Gibco BRL Lot #1111327) by dissolving 109.75 g in 500 mL. To 0.2 ml of Cetaphil® moisturizer base was added 20 μl of solution a, b, c, or d depending upon group (corresponding to Groups “A,” “B,” “C,” or “D”). For group A, added 20 μl PBS alone to 180 μl Cetaphil×84 tubes. For group B, added 20 μl 1.0M Zn to 180 μl Cetaphil×84 tubes. For group C, added 200 μl of 1.0M Zn to 19.8 ml PBS, vortexed, labeled as 0.01M Zn, and added 20 μl of […] to 180 μl Cetaphil×84 tubes. For group D, added 200 μl 0.01M Zn to 19.8 ml PBS, vortexed, labeled as 0.1 mM Zn, and added 20 μl […] to 180 μl Cetaphil×84 tubes. After addition of samples to moisturizer base, the samples were mixed to homogeneity and stored at 4° C. overnight. At N=4 per treatment group, C57 Black Six mice at 8 weeks of age were anesthetized with 3% isoflurane by inhalation, and were shaved at mid-scapular dorsal region. Moisturizer was applied daily at 0.2 cc per day for each group for a 21 day period. After 21 days application, the treated skin segment was harvested en bloc and subdivided into three equal portions: a cranial portion, a left lateral portion, and a right lateral portion. The cranial portion and the left lateral portion were fixed in 10% neutral buffered formalin for 12-16 hours, then rinsed in 70% ethanol and embedded in paraffin. The right lateral portion was snap frozen in OCT medium at the time of harvest and stored at −35° C. until use.
All procedures and analyses were performed by blinded observers.

hypodermal brown fat = conditions: 21 days, base only 456566.375
Description: as §2, §1

epidermis = tested on: epidermis
Description: as §2
as §1, with “Paraffin-embedded specimens from animals treated in example 1 above were sectioned at 4-6 microns, deparaffinized, and stained with a combination of Verhoeff elastica stain and the Masson trichrome stain for morphological assessment of epidermal thickness. All” for “All”
Paraffin-embedded specimens from animals were treated in Example 1 except that the doses of 10.0 μM Zn^++, 1.0 μM Zn^++, 0.1 μM Zn^++, and the control were applied for 42 days. Specimens were fixed and embedded as above, sectioned at 4-6 microns, deparaffinized, and stained with a combination of Verhoeff elastica stain and the Masson trichrome stain for morphological assessment of epidermal thickness. All procedures and analyses were performed by blinded observers. […] Images were analyzed using Image Pro Plus software (Media Cybernetics, Silver Spring, Md.) to determine total cross-sectional area of epidermis over standardized lengths. Mean and standard error were assessed using Statview (Abacus Concepts, Berkeley, Calif.), with comparisons made using ANOVA repeated measures and significance determined at 95% with post-hoc testing using Fisher PLSD or Scheffe F-test.

| Elastase activity (elastase) | sensitivity of elastase to the cation (comparison of the ions) (elastase) | Structure (SMILES) | Cross-sectional deep adipose area across standardized epidermal lengths, Mean (deep white fat) [pixels] | elastase function as the concentration of zinc-containing components increases (elastase; increasing concentration) | elastin content of skin (black elastic fibers, Verhoeff Elastica stain) (murine skin; 21 days daily topical, 10 μM, 1.0 mM, 100 mM Zn++ in moisturizer base vs base only) | local irritation of skin (murine skin; high dose, 100 mM Zn++ (Z high)) | local irritation of skin (murine skin; lower doses (Z low, Z med)) | Cross-sectional hypodermal adipose area across standardized epidermal lengths, Mean (hypodermal brown fat; 10 μM Zn++ (Z low), P=0.0001) [pixels] | Cross-sectional hypodermal adipose area across standardized epidermal lengths, Mean (hypodermal brown fat; 1.0 mM Zn++ (Z med)) [pixels] | Cross-sectional hypodermal adipose area across standardized epidermal lengths, Mean (hypodermal brown fat; 100 mM Zn++ (Z high)) [pixels] | Epidermal area across standardized epidermal lengths, Mean (epidermis; 0.1 μM Zn++ (Z low), 42 days, base only 6728.286) [pixels] | Epidermal area across standardized epidermal lengths, Mean (epidermis; 1.0 μM Zn++ (Z med), 42 days, base only 6728.286) [pixels] | Epidermal area across standardized epidermal lengths, Mean (epidermis; 10 μM Zn++ (Z high), 42 days, base only 6728.286, P = 0.0014) [pixels] | Epidermal area across standardized epidermal lengths, Mean (epidermis; 10.0 μM Zn++ (Z low), 21 days, base only 18221.646) [pixels] | Epidermal area across standardized epidermal lengths, Mean (epidermis; 1.0 mM Zn++ (Z med), 21 days, base only 18221.646) [pixels] | Epidermal area across standardized epidermal lengths, Mean (epidermis; 100 mM Zn++ (Z high), 21 days, base only 18221.646) [pixels] |
| --- | --- | --- | --- | --- | --- | --- | --- | --- | --- | --- | --- | --- | --- | --- | --- | --- |
| increased | most sensitive | [Ca+2] [Ca^2+] |  |  |  |  |  |  |  |  |  |  |  |  |  |  |
| increased | least sensitive | [Mg+2] [Mg^2+] |  |  |  |  |  |  |  |  |  |  |  |  |  |  |

| Structure (SMILES) | Elastase activity (elastase) | sensitivity of elastase to the cation (comparison of the ions) (elastase) | Cross-sectional deep adipose area across standardized epidermal lengths, Mean (deep white fat) [pixels] | elastase function as the concentration of zinc-containing components increases (elastase; increasing concentration) | elastin content of skin (black elastic fibers, Verhoeff Elastica stain) (murine skin; 21 days daily topical, 10 μM, 1.0 mM, 100 mM Zn++ in moisturizer base vs base only) | local irritation of skin (murine skin; high dose, 100 mM Zn++ (Z high)) | local irritation of skin (murine skin; lower doses (Z low, Z med)) | Cross-sectional hypodermal adipose area across standardized epidermal lengths, Mean (hypodermal brown fat; 10 μM Zn++ (Z low), P=0.0001) [pixels] | Cross-sectional hypodermal adipose area across standardized epidermal lengths, Mean (hypodermal brown fat; 1.0 mM Zn++ (Z med)) [pixels] | Cross-sectional hypodermal adipose area across standardized epidermal lengths, Mean (hypodermal brown fat; 100 mM Zn++ (Z high)) [pixels] | Epidermal area across standardized epidermal lengths, Mean (epidermis; 0.1 μM Zn++ (Z low), 42 days, base only 6728.286) [pixels] | Epidermal area across standardized epidermal lengths, Mean (epidermis; 1.0 μM Zn++ (Z med), 42 days, base only 6728.286) [pixels] | Epidermal area across standardized epidermal lengths, Mean (epidermis; 10 μM Zn++ (Z high), 42 days, base only 6728.286, P = 0.0014) [pixels] | Epidermal area across standardized epidermal lengths, Mean (epidermis; 10.0 μM Zn++ (Z low), 21 days, base only 18221.646) [pixels] | Epidermal area across standardized epidermal lengths, Mean (epidermis; 1.0 mM Zn++ (Z med), 21 days, base only 18221.646) [pixels] | Epidermal area across standardized epidermal lengths, Mean (epidermis; 100 mM Zn++ (Z high), 21 days, base only 18221.646) [pixels] |
| --- | --- | --- | --- | --- | --- | --- | --- | --- | --- | --- | --- | --- | --- | --- | --- | --- |
| CC(=O)[O-].CC(=O)[O-].[Zn+2] [Zn^++, zinc acetate] | increased | most constantly inhibited | 73011.321 | stabilizing, then destabilizing, then restabilizing elastase function | dose-dependant increases in the elastin content of skin | epidermal sloughing and irritation occurs | without local signs of irritation | 436809.417 | 377185.833 | 132251.333 | 6710.000 | 7724.190 | 7203.875 | 16786.125 | 20799.188 | 27365.292 |
